Series [1] deals with T1, human PDE10A enzyme (Homo sapiens, UniProt Q9Y233).
T1 construct: Human PDE10A full-length gene was transfected into Sf9 or COS-7 cells; His-tag; made in house; host or cells: Sf9 or COS-7 cells
Briefly: PDE10A enzyme activity inhibition test (Scintillation Proximity Assay, [3H]cGMP substrate). In kind it is biochemical. The conditions noted are these: control without compound = 0%, without compound and enzyme = 100%; for inhibition at 0.1 µM: compound 0.1 μM, read-out: Inhibitory rate (%) (0.1 μM); for inhibition at 10 µM: compound 10 μM, read-out: Inhibitory rate (%) (10 μM). The method, then:
Human PDE10A full-length gene was transfected into Sf9 or COS-7 cells. The cells were disrupted and centrifuged, and human PDE10A enzyme was obtained from the residue. The enzyme extracted from Sf9 cells was partially purified using His-tag affinity column. The enzyme was stored at −70° C. until use.
The PDE 10A enzyme activity was measured using an Scintillation Proximity Assay (SPA, GE Healthcare). To measure the inhibitory activity of the test compound, 10 μL of serially diluted test compound was reacted with 20 μL of PDE 10A enzyme in an assay buffer (50 mM HEPES-NaOH, 8.3 mM MgCl2, 1.7 mM EGTA, 0.1% BSA (pH 7.4)) for 30 min at room temperature. The final concentration of DMSO in the reaction mixture was 1%.
The compounds were evaluated in duplicate in 96-well half-area plates (Corning). To start the reaction, 10 μL of substrate [3H] cGMP (25 or 50 nM; GE Healthcare and PerkinElmer, respectively) was added thereto to the total volume of 40 μL. After 60 min of reaction at room temperature, yttrium SPA beads containing zinc sulphate were added (6 mg/mL, 20 μL) to terminate the reaction. After standing still for 1 hr, the measurement was performed using a scintillation counter (PerkinElmer) and the inhibition rate was calculated. As for the inhibitory rate, the value without addition of the compound (control) was 0%, and that without addition of the compound and enzyme was 100%.
(SPA uses beads or plates that emit light when radiolabelled molecules are held near them.)

Series [2] relates to hyperlocomotion induced by MK-801. The series is described as follows: Suppressive action on hyperlocomotion induced by MK-801. In kind it is in vivo, rat. The settings on record: male SD rats; 1 mg/kg p.o., 60 min before MK-801 (0.3 mg/kg, s.c.); vs vehicle, Student's t-test P<0.05; FIG. 1. The source says:
Male SD rats were purchased from Charles River Laboratories Japan, Inc. (Kanagawa, Japan), and used for the experiment at the age of 8 weeks. After arrival at the vivarium, the animals were acclimated for at least 1 week. The animals were reared under a 12:12 hr light/dark cycle in a temperature- and humidity-controlled laboratory and allowed to freely take food and water.
Example 14 was suspended in 0.5% (w/v) aqueous methylcellulose solution and orally administered (p.o.). (+)-MK-801 hydrogen maleate (MK-801, Sigma-Aldrich, St Louis, State of Missouri) was dissolved in saline, and subcutaneously administered (s.c.). All drugs were dosed in a volume of 2 mL/kg body weight for rats.
Hyperlocomotion induced by psychostimulants (e.g., amphetamine, cocaine, methamphetamine, MK-801 and phencyclidine) in rodents is widely used as an animal model of psychosis (Psychopharmacology 1999, vol. 145: 237-250). Using rats, a suppressive action of a compound (Example 14) on the hyperlocomotion induced by MK-801 was tested. Until the start of the test, male SD rats (8-week-old) were acclimated in a locomotor chamber with an infrared sensor set on the upper side (Muromachi Kikai Co., Ltd., Tokyo, Japan). […] Hyperlocomotion was measured every 1 min, and the cumulative count for 120 min from the administration of MK-801 was calculated for each treatment group. […]

T1 sequence (Q9Y233 267-1055): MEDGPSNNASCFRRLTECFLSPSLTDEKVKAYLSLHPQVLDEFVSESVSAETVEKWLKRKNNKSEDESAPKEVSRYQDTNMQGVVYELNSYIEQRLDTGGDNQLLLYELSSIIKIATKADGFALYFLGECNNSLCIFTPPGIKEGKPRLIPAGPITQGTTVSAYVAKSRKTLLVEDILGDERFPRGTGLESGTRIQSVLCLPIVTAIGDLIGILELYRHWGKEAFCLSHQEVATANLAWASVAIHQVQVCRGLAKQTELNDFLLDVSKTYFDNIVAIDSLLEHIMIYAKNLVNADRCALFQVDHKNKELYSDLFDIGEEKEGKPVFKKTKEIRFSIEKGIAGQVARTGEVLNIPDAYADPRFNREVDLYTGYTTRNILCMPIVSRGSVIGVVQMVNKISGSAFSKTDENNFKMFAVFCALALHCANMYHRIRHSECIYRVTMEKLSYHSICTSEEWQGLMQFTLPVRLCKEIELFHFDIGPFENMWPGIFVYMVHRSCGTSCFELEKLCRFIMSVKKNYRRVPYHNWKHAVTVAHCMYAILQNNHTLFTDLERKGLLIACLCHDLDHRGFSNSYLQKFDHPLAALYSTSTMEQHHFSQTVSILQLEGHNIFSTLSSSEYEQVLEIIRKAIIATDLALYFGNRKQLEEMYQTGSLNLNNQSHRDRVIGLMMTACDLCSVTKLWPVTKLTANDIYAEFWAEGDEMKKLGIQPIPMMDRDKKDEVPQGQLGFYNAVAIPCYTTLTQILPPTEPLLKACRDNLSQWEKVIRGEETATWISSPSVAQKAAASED

`CCn1nc2cccnc2c1-c1ccc(Oc2nc3ccccc3[nH]2)cc1` [Example 3, 3-[4-(1H-benzimidazol-2-yloxy)phenyl]-2-ethyl-2H-pyrazolo[4,3-b]pyridine]: in series [1], the inhibition at 0.1 µM is 91% and the inhibition at 10 µM amounted to 102%.

The term melting point denotes the temperature, or range, at which the solid turns liquid. As for `Cc1ccnc2c1n1ccnc1n2-c1ccc(Oc2nc3cccnc3n2C)cc1` [Example 15, 5-Methyl-9-{4-[(3-methyl-3H-imidazo[4,5-b]pyridin-2-yl)oxy]phenyl}-9H-imidazo[1′,2′:1,2]imidazo[4,5-b]pyridine], the melting point fell in the range of 236 to 239 °C. For the same compound, in series [1], the inhibition at 0.1 µM worked out at 97% and the inhibition at 10 µM is 95%.

For `CCn1nc2cccnc2c1-c1ccc(Oc2nc3ccccc3n2C)cc1` [Example 4, 2-Ethyl-3-{4-[(1-methyl-1H-benzimidazol-2-yl)oxy]phenyl}-2H-pyrazolo[4,3-b]pyridine], in series [1], the inhibition at 0.1 µM turned out to be 93% and the inhibition at 10 µM is 102%.

As to `Cc1cn2cccc(-c3ccc(Oc4nc5ccccc5[nH]4)cc3)c2n1` [Example 1, 2-[4-(2-Methylimidazo[1,2-a]pyridin-8-yl)phenoxy]-1H-benzimidazole], in series [1], the inhibition at 0.1 µM is 63% and the inhibition at 10 µM was determined as 98%.

For the compound `Cn1c(Oc2ccc(-n3c4ncccc4n4ccnc34)cc2)nc2ccccc21` [Example 9, 9-{4-[(1-Methyl-1H-benzimidazol-2-yl)oxy]phenyl}-9H-imidazo[1′,2′:1,2]imidazo[4,5-b]pyridine], the melting point fell in the range of 232 to 234 °C. In series [1], the inhibition at 0.1 µM came to 93% and the inhibition at 10 µM is 96%.

As to `Cn1c(Oc2ccc(-n3c4ncccc4n4ccnc34)cc2)nc2cccnc21` [Example 13, 9-{4-[(3-Methyl-3H-imidazo[4,5-b]pyridin-2-yl)oxy]phenyl}-9H-imidazo[1′,2′:1,2]imidazo[4,5-b]pyridine], the melting point was 228 to 231 °C. In series [1], the inhibition at 0.1 µM is 97% and the inhibition at 10 µM was found to be 106%.

Regarding `Cn1c(=O)c2cccnc2n1-c1ccc(Oc2nc3ccccc3[nH]2)cc1` [Example 7, 1-[4-(1H-benzimidazol-2-yloxy)phenyl]-2-methyl-1,2-dihydro-3H-pyrazolo[3,4-b]pyridin-3-one], in series [1], the inhibition at 0.1 µM is 59%.

As to `CC(C)(O)Cn1c(Oc2ccc(-n3c4ncccc4n4ccnc34)cc2)nc2ccccc21` [Example 11, 1-{2-[4-(9H-imidazo[1′,2′:1,2]imidazo[4,5-b]pyridin-9-yl)phenoxy]-1H-benzimidazol-1-yl}-2-methylpropan-2-ol], the melting point was 208 to 211 °C. In addition, in series [1], the inhibition at 0.1 µM is 104% and the inhibition at 10 µM amounted to 106%.

Turning to `CCc1nn(-c2ccc(Oc3nc4ccccc4n3C)cc2)c2ncccc12` [Example 8, 3-Ethyl-1-{4-[(1-methyl-1H-benzimidazol-2-yl)oxy]phenyl}-1H-pyrazolo[3,4-b]pyridine], in series [1], the inhibition at 0.1 µM was 93% and the inhibition at 10 µM was 104%.

As for `COCCn1c(Oc2ccc(-n3c4nccc(C)c4n4ccnc34)cc2)nc2cccnc21` [Example 16, 9-(4-{[3-(2-Methoxyethyl)-3H-imidazo[4,5-b]pyridin-2-yl]oxy}phenyl)-5-methyl-9H-imidazo[1′,2′:1,2]imidazo[4,5-b]pyridine], the melting point lay in the range of 190 to 192 °C. For the same compound, in series [1], the inhibition at 0.1 µM is 98% and the inhibition at 10 µM came to 105%.

Regarding `COc1nn(-c2ccc(Oc3nc4ccccc4[nH]3)cc2)c2ncccc12` [Example 6, 1-[4-(1H-benzimidazol-2-yloxy)phenyl]-3-methoxy-1H-pyrazolo[3,4-b]pyridine], the inhibition at 0.1 µM in series [1] amounted to 99%.

In the case of `c1ccc2[nH]c(Oc3ccc(C4CCCn5ccnc54)cc3)nc2c1` (centres unmarked) [Example 5, 2-[4-(5,6,7,8-Tetrahydroimidazo[1,2-a]pyridin-8-yl)phenoxy]-1H-benzimidazole], in series [1], the inhibition at 0.1 µM is 2% and the inhibition at 10 µM worked out at 51%.

Turning to `CCc1nn(-c2ccc(Oc3nc4cccnc4n3C)cc2)c2ncccc12` [Example 12, 3-Ethyl-1-{4-[(3-methyl-3H-imidazo[4,5-b]pyridin-2-yl)oxy]phenyl}-1H-pyrazolo[3,4-b]pyridine], in series [1], the inhibition at 0.1 µM was found to be 99% and the inhibition at 10 µM is 101%.

Consider `c1ccc2[nH]c(Oc3ccc(-c4cccn5ccnc45)cc3)nc2c1` [Example 2, 2-[4-(Imidazo[1,2-a]pyridin-8-yl)phenoxy]-1H-benzimidazole], for which, in series [1], the inhibition at 0.1 µM was found to be 62% and the inhibition at 10 µM was 98%.

For `COCCn1c(Oc2ccc(-n3c4ncccc4n4ccnc34)cc2)nc2cccnc21` [Example 14, 9-(4-{[3-(2-Methoxyethyl)-3H-imidazo[4,5-b]pyridin-2-yl]oxy}phenyl)-9H-imidazo[1′,2′:1,2]imidazo[4,5-b]pyridine], the melting point was 178 to 182 °C. Besides, in series [1], the inhibition at 0.1 µM was found to be 96% and the inhibition at 10 µM was 105%. In addition, in series [2], the “suppression of hyperlocomotion induced by MK-801 (cumulative count 0-120 min)” value is listed as “significantly suppressed hyperlocomotion induced by MK-801”.

Consider `CC(=O)Cn1c(Oc2ccc(-n3c4ncccc4n4ccnc34)cc2)nc2ccccc21` [Example 10, 1-{2-[4-(9H-imidazo[1′,2′:1,2]imidazo[4,5-b]pyridin-9-yl)phenoxy]-1H-benzimidazol-1-yl}propan-2-one], for which the melting point fell in the range of 189 to 192 °C. In series [1], the inhibition at 0.1 µM worked out at 104% and the inhibition at 10 µM is 109%.

Values taken from patent publication US9029388B2, “Condensed heterocyclic compound” (Takeda Pharmaceutical Company Limited, priority 2011, dated 2015).
